Data as given in patent US20260324636A1, “COMPOSITION FOR PROVIDING PLANT WITH STRESS RESISTANCE” (KIRIN HOLDINGS KABUSHIKI KAISHA, priority 2022, published 2026).

Tests used:
Arabidopsis thaliana = test: High-temperature stress resistance in pot culture (fresh weight of aboveground part), Example 2; format: in vivo, Arabidopsis thaliana (Col-0); conditions: 0.5 mM in tap water, 37° C. for 5 days
Description: (§1) The materials as used in Example 1 were used.
Jiffy-7 (42 mm diameter, Sakata Seed Corporation) was used as culture soil for pot culture. On Jiffy-7 prepared on the Disposable Tray DT-3 (AS ONE CORPORATION), a grain of Arabidopsis thaliana seeds was seeded and the plant was allowed to grow in an artificial climate chamber (Nippon Medical & Chemical Instruments Co., Ltd.) maintained at a temperature of 22° C. for a daily cycle of 16 hours light and 8 hours darkness.
On the third week after seeding, tap water (200 ml) containing 0.5 mM N-acetylglutamic acid was poured on the Disposable Tray. On the fourth week after seeding, the tray was transferred to an artificial climate chamber maintained at a temperature of 37° C. and subjected to the high-temperature treatment. When the tray was dried during the high-temperature treatment, tap water containing 0.5 mM N-acetylglutamic acid was added. The tray was removed from the artificial climate chamber 5 days after the initiation of the high-temperature treatment, and the weight of the aboveground part was measured.

hop = test: High-temperature stress resistance in hop (fresh weight of aboveground part), Example 4; format: in vivo, hop (variety: Saaz); conditions: 0.1 mM in agar medium, 30° C. 2 weeks
Description: A hop strain (the variety: Saaz) was used as an experimental material. Hop seedlings were purchased from Hananoyakata (http://hananoyakata.shop-pro.jp).
Tissue-cultured seedlings required for evaluation of high temperature response of a hop were prepared in a laboratory. A stem fragment including a node was removed from a Saaz seedling as an explant and incubated with 70 (v/v) % ethanol (FUJIFILM Wako) for 1 minute and with 1 (v/v) % sodium hypochlorite (FUJIFILM Wako) for 5 minutes for sterilization. The explant was washed with sterile water for 1 minute, washing was repeated 3 times, moisture was removed therefrom with a paper towel, the explant was inoculated in an agar medium containing a ½ Murashige and Skoog Plant Salt Mixture, 2 (w/v) % glucose, and 0.2 (w/v) % gellan gum (FUJIFILM Wako), and culture was initiated in an incubator. The incubator was maintained at a temperature of 20° C. for a daily cycle of 16 hours light and 8 hours darkness. Two weeks after the initiation of culture, axillary buds extending from the nodes were cut and inoculated into an agar medium, and the sufficiently grown seedlings were designated as “tissue-cultured seedlings.” Tissue-cultured seedlings were subcultured by inoculating apical buds into fresh agar media every 1.5 months. […]

HSFA2 = HSFA2 gene expression by real-time PCR, Example 5; format: in vivo; conditions: Arabidopsis thaliana; 0.1 mM in medium, 2 hours after application, 22° C.; read-out: HSFA2 expression level, increase vs group not subjected to the treatment
Description: as §1
(§2) The method as employed in Example 1 was employed.
(§3) N-acetylglutamic acid was applied to Arabidopsis thaliana 7 days after inoculation to the final concentration of 0.1 mM in the medium, followed by incubation for 2 hours or 6 hours. The incubator was maintained at a temperature of 22° C. for a daily cycle of 16 hours light and 8 hours darkness. After incubation, the samples were frozen with liquid nitrogen, and RNA was extracted using the RNeasy Plant Mini Kit (Thermo Fischer Scientific).
(§4) cDNA that would be necessary as a real-time PCR template was synthesized from the RNA obtained. 500 ng total RNA was used for each sample, and cDNA was synthesized using the Verso cDNA Synthesis Kit (Thermo Fischer Scientific). The synthesized cDNA was diluted to 5-fold with sterile distilled water and subjected to real-time PCR. For real-time PCR, a reaction solution containing HSFA2 (AGI code: AT2G26150) and HSP17.6C (AGI code: AT1G53540) as the target genes, ACTIN2 (AGI code: AT3G18780) as the reference gene, and TB Green Ex Taq II (TaKaRa) was prepared. PCR was performed with the use of the LightCycler® 480 System (Roche) with the number of amplification cycles of 50. […]
(§5) Thereafter, the relative expression level of the target genes upon N-acetylglutamic acid treatment were calculated by the ΔΔCt method using the Cp values obtained by real-time PCR.

HSP17.6C = HSP17.6C gene expression by real-time PCR, Example 5; format: in vivo; conditions: Arabidopsis thaliana; 0.1 mM in medium, 6 hours after application, 22° C.; read-out: HSP17.6C expression level, increase vs control group
Description: as §1, §2, §3, §4, §5

With `CC(=O)N[C@@H](CCC(=O)O)C(=O)O` [N-acetylglutamic acid] the “fresh weight of the aboveground part, increase relative to the control group” value (Arabidopsis thaliana) was 1.3 times, the “fresh weight of the aboveground part, increase relative to the group not subjected to the treatment” value (hop) was 1.8 times and the “decrease in the fresh weight of the aboveground part caused by the high-temperature treatment” value (hop; vs control group) was “suppressed”. It also gave a fold induction at 100 µM (HSFA2) of 2.5 and a fold induction at 100 µM (HSP17.6C) of 1.2.
